# Laboratory results from the supplement of paper PMC10307832.
# Experiments:
# Experiment in all cases: relative viability (nuclei count vs DMSO), 5 days (fraction); higher = more cells survive
# NCI-H1355 = test system: NCI-H1355
# How it was run: (§1)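 A single step with final 0.05% Triton X-100, 1% formaldehyde and 1 ug/ml Hoechst fixed the cells and stained nuclei 5 days after treatment. Lung cancer cell lines in 1536-well plates had been treated by pin tool the day after seeding with one drug alone or a fixed anchor-drug dose plus five library-drug doses (not always all listed) in √10 steps, and nuclei were counted on 4× images. Relative viability is the ratio of nuclei in treated wells to nuclei in vehicle wells, taken as the median of duplicate plates.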
# HCC-78 = test system: HCC-78
# How it was run: as §1
# HCC-366 = test system: HCC-366
# How it was run: as §1
# BEN = test system: BEN
# How it was run: as §1
# NCI-H838 = test system: NCI-H838
# How it was run: as §1
# NCI-H520 = test system: NCI-H520
# How it was run: as §1
# UMC-11 = test system: UMC-11
# How it was run: as §1
# NCI-H727 = test system: NCI-H727
# How it was run: as §1
# SW 1573 = test system: SW 1573
# How it was run: as §1
# NCI-H2347 = test system: NCI-H2347
# How it was run: as §1
# NCI-H2228 = test system: NCI-H2228
# How it was run: as §1
# NCI-H2009 = test system: NCI-H2009
# How it was run: as §1
# NCI-H358 = test system: NCI-H358
# How it was run: as §1
# HCC-44 = test system: HCC-44
# How it was run: as §1
# LK-2 = test system: LK-2
# How it was run: as §1
# 201T = test system: 201T
# How it was run: as §1
# NCI-H1755 = test system: NCI-H1755
# How it was run: as §1
# NCI-H1666 = test system: NCI-H1666
# How it was run: as §1
# NCI-H2405 = test system: NCI-H2405
# How it was run: as §1
# NCI-H1650 = test system: NCI-H1650
# How it was run: as §1
# NCI-H1734 = test system: NCI-H1734
# How it was run: as §1
# LOU-NH91 = test system: LOU-NH91
# How it was run: as §1
# ABC-1 = test system: ABC-1
# How it was run: as §1
structure (smiles),measurement,setting,value
CCCCCCCCCCCC1=C(O)C(=O)C=C(O)C1=O [Embelin] + Cc1cc(Nc2cc(N3CCN(C)CC3)nc(Sc3ccc(NC(=O)C4CC4)cc3)n2)n[nH]1 [Tozasertib] (partner 0.1 µM),relative viability,NCI-H1355; first compound 0.08 µM,0.608
same,relative viability,NCI-H1355; first compound 0.8 µM,0.704
same,relative viability,NCI-H1355; first compound 2.53 µM,0.546
same,relative viability,NCI-H1355; first compound 8 µM,0.499
same,relative viability,HCC-78; first compound 0.08 µM,0.519
same,relative viability,HCC-78; first compound 0.8 µM,0.511
same,relative viability,HCC-78; first compound 2.53 µM,0.697
same,relative viability,HCC-78; first compound 8 µM,0.437
same,relative viability,HCC-366; first compound 0.08 µM,0.108
same,relative viability,HCC-366; first compound 0.8 µM,0.188
same,relative viability,HCC-366; first compound 2.53 µM,0.177
same,relative viability,HCC-366; first compound 8 µM,0.113
same,relative viability,BEN; first compound 0.08 µM,0.518
same,relative viability,BEN; first compound 0.8 µM,0.591
same,relative viability,BEN; first compound 2.53 µM,0.542
same,relative viability,BEN; first compound 8 µM,0.512
same,relative viability,NCI-H838; first compound 0.08 µM,0.298
same,relative viability,NCI-H838; first compound 0.8 µM,0.272
same,relative viability,NCI-H838; first compound 2.53 µM,0.282
same,relative viability,NCI-H838; first compound 8 µM,0.295
same,relative viability,NCI-H520; first compound 0.08 µM,0.56
same,relative viability,NCI-H520; first compound 0.8 µM,0.459
same,relative viability,NCI-H520; first compound 2.53 µM,0.467
same,relative viability,NCI-H520; first compound 8 µM,0.376
same,relative viability,UMC-11; first compound 0.08 µM,0.211
same,relative viability,UMC-11; first compound 0.8 µM,0.199
same,relative viability,UMC-11; first compound 2.53 µM,0.184
same,relative viability,UMC-11; first compound 8 µM,0.192
same,relative viability,NCI-H727; first compound 0.08 µM,0.552
same,relative viability,NCI-H727; first compound 0.8 µM,0.565
same,relative viability,NCI-H727; first compound 2.53 µM,0.634
same,relative viability,NCI-H727; first compound 8 µM,0.675
same,relative viability,SW 1573; first compound 0.08 µM,0.18
same,relative viability,SW 1573; first compound 0.8 µM,0.25
same,relative viability,SW 1573; first compound 2.53 µM,0.167
same,relative viability,SW 1573; first compound 8 µM,0.187
same,relative viability,NCI-H2347; first compound 0.08 µM,0.608
same,relative viability,NCI-H2347; first compound 0.8 µM,0.465
same,relative viability,NCI-H2347; first compound 2.53 µM,0.575
same,relative viability,NCI-H2347; first compound 8 µM,0.612
same,relative viability,NCI-H2228; first compound 0.08 µM,0.269
same,relative viability,NCI-H2228; first compound 0.8 µM,0.247
same,relative viability,NCI-H2228; first compound 2.53 µM,0.309
same,relative viability,NCI-H2228; first compound 8 µM,0.238
same,relative viability,NCI-H2009; first compound 0.08 µM,0.753
same,relative viability,NCI-H2009; first compound 0.8 µM,0.915
same,relative viability,NCI-H2009; first compound 2.53 µM,0.798
same,relative viability,NCI-H2009; first compound 8 µM,0.714
same,relative viability,NCI-H358; first compound 0.08 µM,0.116
same,relative viability,NCI-H358; first compound 0.8 µM,0.0994
same,relative viability,NCI-H358; first compound 2.53 µM,0.108
same,relative viability,NCI-H358; first compound 8 µM,0.106
same,relative viability,HCC-44; first compound 0.08 µM,1.03
same,relative viability,HCC-44; first compound 0.8 µM,1.12
same,relative viability,HCC-44; first compound 2.53 µM,0.814
same,relative viability,HCC-44; first compound 8 µM,0.836
same,relative viability,LK-2; first compound 0.08 µM,0.161
same,relative viability,LK-2; first compound 0.8 µM,0.172
same,relative viability,LK-2; first compound 2.53 µM,0.147
same,relative viability,LK-2; first compound 8 µM,0.177
same,relative viability,201T; first compound 0.08 µM,0.934
same,relative viability,201T; first compound 0.8 µM,0.963
same,relative viability,201T; first compound 2.53 µM,0.94
same,relative viability,201T; first compound 8 µM,1.06
same,relative viability,NCI-H1755; first compound 0.08 µM,0.666
same,relative viability,NCI-H1755; first compound 0.8 µM,0.647
same,relative viability,NCI-H1755; first compound 2.53 µM,0.605
same,relative viability,NCI-H1755; first compound 8 µM,0.555
same,relative viability,NCI-H1666; first compound 0.08 µM,0.615
same,relative viability,NCI-H1666; first compound 0.8 µM,0.68
same,relative viability,NCI-H1666; first compound 2.53 µM,0.639
same,relative viability,NCI-H1666; first compound 8 µM,0.615
same,relative viability,NCI-H2405; first compound 0.08 µM,0.816
same,relative viability,NCI-H2405; first compound 0.8 µM,0.798
same,relative viability,NCI-H2405; first compound 2.53 µM,0.847
same,relative viability,NCI-H2405; first compound 8 µM,0.826
same,relative viability,NCI-H1650; first compound 0.08 µM,0.396
same,relative viability,NCI-H1650; first compound 0.8 µM,0.452
same,relative viability,NCI-H1650; first compound 2.53 µM,0.399
same,relative viability,NCI-H1650; first compound 8 µM,0.462
same,relative viability,NCI-H1734; first compound 0.08 µM,0.26
same,relative viability,NCI-H1734; first compound 0.8 µM,0.27
same,relative viability,NCI-H1734; first compound 2.53 µM,0.292
same,relative viability,NCI-H1734; first compound 8 µM,0.262
same,relative viability,LOU-NH91; first compound 0.08 µM,0.751
same,relative viability,LOU-NH91; first compound 0.8 µM,0.827
same,relative viability,LOU-NH91; first compound 2.53 µM,0.749
same,relative viability,LOU-NH91; first compound 8 µM,0.808
same,relative viability,ABC-1; first compound 0.08 µM,0.189
same,relative viability,ABC-1; first compound 0.8 µM,0.166
same,relative viability,ABC-1; first compound 2.53 µM,0.181
same,relative viability,ABC-1; first compound 8 µM,0.148
